Reference: PMC3636874, “An Antedrug of the CXCL12 Neutraligand Blocks Experimental Allergic Asthma without Systemic Effect in Mice” (The Journal of Biological Chemistry, 2013)
Values after ≈ are worked out from the molar mass of the structure shown.

What was measured:
[1] = Thermodynamic solubility (HPLC); format: physicochemical; conditions: for solubility: phosphate-buffered saline, PBS pH 7.4, 21 °C, 24 h shaking (CN-chalcone 4: 2 h, estimate), read-out: solubility in saline buffer; for maximal concentration dissolved with HP-βCD: physiological solution with 10% HP-βCD, 21 °C (CN-chalcone 4: 2 h, estimate)
Description: Solubility and stability studies were performed on a Gilson HPLC system with a photodiode array detector, an autosampler, and a Valco injector. Data acquisition and processing were performed with Trilution LC version 2.0 software. Measurements were carried out at 21 ± 1 °C. A 2.6-μm Kinetex column (50 × 4.6 mm) was used for stability studies in biological media, and a 5-μm Luna C18(2) column (50 × 4.6 mm) was used for solubility and chemical stability analysis. Both columns were purchased from Phenomenex. The injection volume was 20 μl, the mobile phase flow rate was 2 ml/min, and the following program was applied for the elution: 0–0.2 min, 0% B; 0.2–2.7 min, 0–100% B; 2.7–3.2 min, 100% B; 3.2–3.4 min, 100–0% B; 3.4–6.1 min, 0% B. Solvent B was HPLC grade acetonitrile (Sigma-Aldrich CHROMASOLV). The aqueous solvent contained 0.1% trifluoroacetic acid, and the detection wavelength was 365 nm.
Thermodynamic solubility was measured by dissolving the compounds up to saturation in a pH 7.4 phosphate-buffered saline (PBS) with the following composition: 137.5 mM NaCl, 2.7 mM KCl, 4.3 mM Na2HPO4, and 1.4 mM KH2PO4 supplemented or not with 10% hydroxypropyl-β-cyclodextrin (HP-βCD). Samples were shaken for 24 h at 21 ± 1 °C. Saturation was confirmed by the presence of undissolved powder. After ultracentrifugation, the concentration in the supernatant was measured by an HPLC procedure using a calibration curve established for each compound by diluting a 10 mM DMSO stock solution to adapted concentrations. Due to rapid degradation of CN-chalcone 4, solubility was determined after 2 h of shaking. The indicated value given for CN-chalcone 4 is thus an estimate of the solubility.

[2] = test system: inflammatory cell recruitment in the airways of OVA-sensitized and challenged BALB/c mice; experiment: 8-day murine model of airway hypereosinophilia (OVA sensitization and challenge), cell counts in BALF; format: in vivo, mouse; conditions: for effect on eosinophil / inflammatory cell recruitment in BALF after OVA challenge, intranasal: intranasal 300 nmol/kg in 10% HP-βCD, 2 h before each challenge; for inhibition of eosinophil counts in BALF: intranasal, 300–500 nmol/kg in 10% HP-βCD, 2 h before each OVA challenge; for effect on inflammatory cell counts in BALF after OVA challenge, intraperitoneal in HP-βCD: twice daily 20 μmol/kg in 10% HP-βCD, 3 days; for effect on airway inflammation (BALF cell recruitment) after OVA challenge, intraperitoneal in carboxymethylcellulose: up to 350 μmol/kg once a day for 3 days in 1% carboxymethylcellulose
Description: The in vivo activity of the compounds was assessed in an 8-day model of hypereosinophilia created by immunization and challenge to ovalbumin in mice. Briefly, 9-week-old male BALB/c mice were sensitized by intraperitoneal injection of a mixture of 50 μg of ovalbumin (OVA, grade V; Sigma-Aldrich) adsorbed on aluminum hydroxide (2 mg; Sigma-Aldrich) in 0.1 ml of saline on days 0, 1, and 2. Mice were challenged intranasally with 10 μg of OVA in 25 μl of saline (12.5 μl/nostril) on days 5, 6, and 7. Control mice received intraperitoneal and intranasal administrations of saline alone. Intranasal administrations were performed under anesthesia with 50 mg/kg ketamine and 3.33 mg/kg xylazine given intraperitoneally. Food and water were supplied ad libitum. Animal experimentation was conducted with the approval of the government body that regulates animal research in France. The chalcone compounds were administered either by the intraperitoneal or intranasal routes. In a first set of experiments, mice received either chalcone 4 or carbonitrile-chalcone 4 solubilized in PBS with 10% HP-βCD (C0926, Sigma) by intranasal injection 2 h before each nasal OVA or saline challenge. In a second set of experiments, mice received CN-chalcone 4, vanillin, or parachlorobenzoylacetonitrile intranasally, in PBS with HP-βCD 10%, 2 h before each OVA or saline challenge. In the last set of experiments, mice received chalcone 4 or CN-chalcone 4 in suspension in carboxymethylcellulose 1% or solubilized in PBS with HP-βCD 10% and administered by intraperitoneal injection 2 h before each OVA or saline challenge. Collection of bronchoalveolar lavage fluid (BALF) was performed 24 h after the last OVA challenge. Mice were deeply anesthetized by intraperitoneal injection of 150 mg/kg ketamine and 10 mg/kg xylazine. A plastic canula was inserted into the trachea, and airways were lavaged by 10 instillations of 0.5 ml of ice-cold saline supplemented with 2.6 mM EDTA (saline-EDTA). Total and differential cell counts in the BALF were performed after centrifugation (300 × g for 5 min at 4 °C) to pellet cells. Erythrocytes were lysed by hypotonic shock by the addition of 1.5 ml of distilled H2O, followed by the addition of 0.5 ml of 0.6 M KCl. Cells were centrifuged and resuspended in 500 μl of ice-cold saline-EDTA, and total cell counts were determined using a hemocytometer (Neubauer's chamber). Differential cell counts were assessed on cytologic preparation obtained by cytocentrifugation (Cytospin 3, Shandon Ltd.) of 200 μl of diluted BALF (250,000 cells/ml in ice-cold saline-EDTA). Slides were stained with Hemacolor (Merck), and counts were performed on at least 400 cells for each preparation. Differential counts were expressed as absolute numbers or as a percentage of the total number of cells.
The in vivo activity of CN-chalcone 4 was assayed in a recently developed 8-day mouse model of airway hypereosinophilia ([24]). In this model, mice are sensitized by intraperitoneal injection of OVA (50 μg) adsorbed on 2 mg of aluminum hydroxide in 0.1 ml of saline on days 0, 1, and 2. Mice are then challenged intranasally with 10 μg of OVA in 25 μl of saline (12.5 μl/nostril) on days 5, 6, and 7. Drugs to be tested can be administered either systemically by the intraperitoneal route or locally by the intranasal route. The intranasal route mimics the inhalation exposure used in humans, which is the preferred and well accepted administration for inflamed airway treatment, in particular asthma. Thus, unless otherwise stated, drugs were administered intranasally in this study. Due to limited solubility of chalcone 4 (9 ± 1 μM) and CN-chalcone 4 (16 ± 2 μM) in saline buffer, drugs were dissolved in physiological solutions complemented with HP-βCD (10%, w/w). Under such conditions, chalcone 4 and CN-chalcone 4 could be dissolved at maximal concentrations reaching 690 ± 44 and 493 ± 36 μM, respectively.

Compound | solubility [1] [µM] | maximal concentration dissolved with HP-βCD [1] [µM] | effect on eosinophil / inflammatory cell recruitment in BALF after OVA challenge, intranasal [2] | inhibition of eosinophil counts in BALF [2] | effect on inflammatory cell counts in BALF after OVA challenge, intraperitoneal in HP-βCD [2] | effect on airway inflammation (BALF cell recruitment) after OVA challenge, intraperitoneal in carboxymethylcellulose [2]
COc1cc(/C=C/C(=O)c2ccc(Cl)cc2)ccc1O [chalcone 4] | 9 ± 1 (≈ 2.6 µg/mL) | 690 ± 44 | Significant reduction of eosinophil recruitment | up to 50% | significantly reducing eosinophils, neutrophils, and T cell counts in BALF | dose-dependent anti-inflammatory activity
COc1cc(/C=C(\C#N)C(=O)c2ccc(Cl)cc2)ccc1O [CN-chalcone 4, (E)-2-(4-chlorobenzoyl)-3-(4-hydroxy-3-methoxyphenyl)acrylonitrile] | 16 ± 2 (≈ 5.02 µg/mL) | 493 ± 36 | as potent as chalcone 4 | up to 50% | did not affect any inflammatory cell counts | inactive
